{"source": "patent US20160090351A1", "about": "“INHIBITORS OF DEUBIQUITINATING PROTEASES” (BRANDEIS UNIVERSITY, priority 2013, published 2016)", "key": {"[1]": {"system": "desumoylation", "test": "stabilization of SUMOylated proteins in lysates from HA-SUMO transfected HEK 293T cells", "type": "biochemical, human", "details": "G5 5 μM, C4 300 μM", "protocol": "Untransfected HEK 293T cell lysates were treated with the vehicle alone (DMSO at 1%) or compound and incubated at 37° C. for 2 h. Samples were analyzed by SDS-PAGE and immunoblotting with antibody recognizing K48-linked ubiquitin. D=DMSO; G5=G5 isopeptidase inhibitor 1. A-D show titrations of different compounds (see FIG. 29B for structures). E-H Lysates were prepared from HEK 293T cells expressing HA-SUMO and treated with vehicle alone (DMSO, 1%) or compound. Samples were incubated for the appropriate time and analyzed by SDS-PAGE and immunoblotting with anti-HA antibody. Representative experiments are shown. E. Vehicle control. F. G5, 5 μM; G. C4, 300 μM. H. Quantification of blots as in E-G, N=2 average and range. I-J. Lysates were prepared from HEK 293T cells expressing HA-Ub and treated with either vehicle alone (1% DMSO) or compound at 37° C. for 3 h. Samples were analyzed by SDS-PAGE and immunoblotting with anti-HA antibody. I. A representative experiment. J. Quantitation of experiments in I (N=2 average and range shown). […]\nSimilar effects were observed when the endogenous K48-linked ubiquitin pool was monitored in lysates prepared from wild-type HEK 293T cells (FIG. 37A-D). Unfortunately, K63-linked ubiquitin could not be detected in these lysates. The ability of C4 to stabilize SUMOylated proteins in lysates from HA-SUMO transfected HEK 293T cells was also assessed."}, "[2]": {"system": "B16/F10 cells", "test": "proliferation and cell cycle of B16/F10 cells", "type": "cell-based, mouse", "method": "MCF7 cells were dosed every 2 hours with the indicated concentration of C15. After 6 hours, cells were lysed by freeze thaw and then sonicated in 0.5% SDS. A. Total lysates were blotted for K48-linked ubiquitin and actin. B. Normalized K48-linked ubiquitin signal was plotted as a function of concentration of C15 (N=2). C. […] Doxorubicin (Dox) is a DNA damaging agent that serves as a positive control for the induction of P53. D. Quantitation of P53 levels in C relative to actin (N=2). […] MCF7 cells were treated under the stated conditions then analyzed for cell cycle. F. DMSO treated cells. G. Cells treated with C17 (25 μM), dosed every 24 hours. H. Cells treated with C17 (50 μM), dosed every 24 hours. […] These cells were left for 72 h (single dose) after which time the total number of viable cells was analyzed using Alamar Blue®. All data are n≧4 showing mean+/−s.e.m. K. MCF7 cells were plated with C17 for 24 hours after which time the total number of viable cells was measured by Alamar Blue®. L. B16/F10 cells were treated with DMSO, C17 or P005091 for 72 h. […] After this time, cells were analyzed by flow cytometry.\nAll cells were grown at 37° C. in a 5% CO2 humidified atmosphere in DMEM supplemented with 10% heat inactivated FBS, 1× glutamax, and 1× penicillin/streptomycin. […] Typically clarified lysate was analyzed. […] Lysates were centrifuged (20 000 rpm, microcentrifuge, Eppendorf 5417 C) concentration was measured, then 0.1% SDS was added and lysates were sonicated for a total of 30 s (in 10 s bursts). Protein concentration was determined using Bradford assay with IgG as standard and analyzed by western blot as delineated below {[9 μg total protein for K48-linked ubiquitin (1:9000 antibody dilution), SMAD4 (1:500) or PARP (1:1000)]; [30-40 μg was loaded for K63-linked ubiquitin (1:1500), Mdm2 (1:1000) or Abl (1:1500). […]"}, "[3]": {"system": "Mdm2, p53, p21/WAF1", "test": "Mdm2, p53 and p21/WAF1 levels in MCF7 cells", "type": "cell-based, human", "details": "for Mdm2 levels: C17 4 h, C15 6 hours dosed every 2 hours", "protocol": "FIG. 35 depicts data showing that diphenylcarbonates reduce the levels of Mdm2 and cause the accumulation of P53 and P21 in MCF7 cells. A. MCF7 cells were treated with C17 for 4 h and Mdm2 levels were measured. B. As in A, P53 measured. C. As in A, P21 measured. D. MCF7 and B16/F10 cells were treated with C17 every 24 hours. After 72 hours, the number of viable cells was measured by Alamar Blue®. See also FIG. 41 and FIG. 42.\nC. Effect of C15 on PARP cleavage and P53 levels. […] E. Effects of C15 on Mdm2 and P21 levels. […] F. DMSO treated cells. […] C17 was dosed every 24 h. After this time, cells were analyzed by flow cytometry.\n(§1) Transfected cells were harvested 1.5 days post transfection. […] Typically clarified lysate was analyzed.\nThe ability of diphenyl carbonates to inhibit USP7 function in cells was also assessed. The ubiquitin-ligase Mdm2 is a substrate for USP7. Mdm2 is responsible for the ubiquitination and subsequent degradation of p53. Mdm2 is over-expressed in many cancer cells, resulting in the depletion of p53. Mdm2 is itself degraded via an ubiquitin-dependent process. USP7 removes ubiquitin from Mdm2, protecting it from degradation. Like Mdm2, USP7 is over-expressed in many cancers. Inhibition of USP7 promotes the proteasome-mediated degradation of Mdm2, which causes an increase in p53 levels, as well as those of the downstream signaling protein p21/WAF1, and ultimately induces apoptosis."}, "[4]": {"system": "MCF7 cells", "method": "(§2) MCF7 cells were dosed every 2 hours with the indicated concentration of C15. After 6 hours, cells were lysed by freeze thaw and then sonicated in 0.5% SDS. […] MCF7 cells were treated under the stated conditions then analyzed for cell cycle. […] G. Cells treated with C17 (25 μM), dosed every 24 hours. H. Cells treated with C17 (50 μM), dosed every 24 hours. […] These cells were left for 72 h (single dose) after which time the total number of viable cells was analyzed using Alamar Blue®. All data are n≧4 showing mean+/−s.e.m. K. MCF7 cells were plated with C17 for 24 hours after which time the total number of viable cells was measured by Alamar Blue®.\n(§3) All cells were grown at 37° C. in a 5% CO2 humidified atmosphere in DMEM supplemented with 10% heat inactivated FBS, 1× glutamax, and 1× penicillin/streptomycin. […] Proliferation assays were conducted by plating cells at 5% confluence in 96 well plates together with compound or 0.1% DMSO. Cells were allowed to grow for 72 hours (a 24 h dosing regimen was used for carbonate compounds) and then Alamar Blue® was added and number of cells was measured by fluorescence on a microplate reader."}, "[5]": {"system": "USP9x, USP19, USP7/8, USP28/15", "test": "HA-Ub-VS activity profiling in cell lysates, USPs", "type": "biochemical, human"}, "[6]": {"system": "MCF7 cells", "test": "viability and cell cycle of MCF7 cells (Alamar Blue, FACS)", "method": "as §2, §3"}, "[7]": {"system": "Cos-1 cells", "test": "accumulation of K48- and K63-linked HMW-Ub in Cos-1 cells", "type": "cell-based, monkey", "protocol": "A. Cos-1 cells were treated with C15 dosing every 2 h for 4 hours. Cells were lysed in standard lysis buffer (without detergent) and the sample was clarified prior to analysis. The accumulation of K48-linked ubiquitin was assayed by SDS-PAGE and by western blot. An intervening lane has been removed for clarity. B Lysates and pellet in A were sonicated in SDS at 4° C., centrifuged then analyzed by SDS-PAGE and by western blot. An intervening lane has been removed for clarity. C. Quantitation of blots in A. D. Quantitation of blots in B.\nFIG. 39 depicts data showing the effects of diphenyl carbonates in whole cells. A. Cos-1 cells expressing GFP-Ub(G76V) were treated with the stated diphenyl carbonate (100 μM), bortezomib (B, 20 μM) or DMSO (D) for 8 h. GFP levels were quantified by flow cytometry. B. Cells from A were assessed for viability using propidium iodide dye exclusion assay. C. […] After this time GFP levels were quantified by flow cytometry. D. Cells from C were assessed for viability using propidium iodide dye exclusion. […] G. Cos-1 cells were treated with C15 for 2 hours then analyzed for K48-linked ubiquitin by western blot. […] I. Quantitation of blots in […] (N=3).\nas §1"}, "[8]": {"system": "SMAD4", "test": "SMAD4 monoubiquitination in K562 cells by western blot", "type": "cell-based, human", "protocol": "FIG. 34 depicts data showing that diphenylcarbonates cause the accumulation of HMW-Ub and reduce the levels of Bcr-Abl in K562 cells. A. K562 cells were treated with diphenyl carbonates (50 μM) for 2 h and then assayed for the accumulation of K48-linked Ub. B. As in A, but Bcr-Abl was measured by immunoblotting with anti-Abl antibodies. C. K562 cells were treated with C17 (50 μM) in the presence and absence of bortezomib (6 μM) for 4 hours and Bcr-Abl was measured by immunblotting with anti-Abl antibodies. D. Quantitation of blot in C. Significance: DMSO relative to C17 and bortezomib p=0.002; DMSO relative to C17, p=0.03. E. K562 cells were treated with C15 for 4 hours then analyzed for SMAD4 monoubiquitination by western blot. F. Quantitation of blots in A. (N=3). See also FIG. 40.\nas §1"}}, "note": "Entries after “also recorded” stand apart in the source; their conditions may differ.", "data": [{"smiles": "O=C1/C(=C/c2ccc([N+](=O)[O-])cc2)CS(=O)(=O)C/C1=C\\c1ccc([N+](=O)[O-])cc1", "note": "[Compound G5, reference compound]", "values": [{"measurement": "inhibition of desumoylation", "setting": "[1]", "result": "Neither G5 nor C4 inhibited desumoylation"}]}, {"smiles": "NCc1ccc(OC(=O)Oc2ccc3ccccc3c2)cc1", "note": "[Compound C17]", "values": [{"measurement": "cell cycle distribution", "setting": "[2]; 72 h, flow cytometry", "result": "decrease in cells in G1 phase and an increase in G2"}, {"measurement": "proliferation", "setting": "[2]; 72 hours, dosed every 24 hours", "result": "inhibited proliferation in B16/F10 cells"}, {"measurement": "p21/WAF1 levels", "setting": "[3]", "result": "robust increase in p21/WAF1 levels"}, {"measurement": "p53 levels", "setting": "[3]", "result": "concomitant increase in p53"}, {"measurement": "Mdm2 levels", "setting": "[3]", "result": "Mdm2 levels decreased"}, {"measurement": "cytotoxicity after single dose, 72 h", "setting": "[4]", "result": "no cytotoxicity was observed"}, {"measurement": "decrease of cell viability", "setting": "[4]", "result": 50, "unit": "%"}, {"measurement": "HA-Ub-VS labeling without preincubation", "setting": "[5]; C17 25 μM immediately followed by HA-Ub-VS 1.5 μM", "result": "not sufficient to inhibit the labeling of any of the DUBs"}, {"measurement": "HA-Ub-VS labeling after preincubation and dilution", "setting": "[5]; C17 250 μM preincubated, diluted 10-fold", "result": "labeling was reduced"}, {"measurement": "viability after single dose, 24 h", "setting": "[6]; Alamar Blue", "result": "small, but significant, decrease in viability"}, {"measurement": "G1 phase cells", "setting": "[6]; FACS, dosed every 24 hours", "result": "significant increase in G1 phase cells"}]}, {"smiles": "NCc1ccc(OC(=O)Oc2ccc(Br)cc2)cc1", "note": "[Compound C15, 4-(aminomethyl)phenyl(4-bromophenyl)carbonate]", "values": [{"measurement": "increase in total K48-linked and K63-linked HMW-Ub", "setting": "[7]", "result": "3-5 fold"}, {"measurement": "K48-linked HMW ubiquitin, soluble versus whole cell fraction", "setting": "[7]; dosing every 2 h for 4 hours", "result": "causes the accumulation of soluble HMW-Ub in Cos-1 cells; also recorded: only detectable in the soluble fraction"}, {"measurement": "p21/WAF1 levels", "setting": "[3]", "result": "decreased p21/WAF1"}, {"measurement": "p53 levels", "setting": "[3]", "result": "increased P53 levels"}, {"measurement": "Mdm2 levels", "setting": "[3]", "result": "decreased Mdm2"}, {"measurement": "SMAD4 monoubiquitination", "setting": "[8]", "result": "increased SMAD4 monoubiquitination"}]}]}
